Measurements taken from patent publication US9212151B2, “Heterocyclic compounds useful for kinase inhibition” (Amitech Therapeutic Solutions, Inc., priority 2010, dated 2015).

Test: MTT cell viability assay, compounds at 5, 1 and 0.2 μM, 48 hours
Assay type: cell-based
Conditions: human, A549 tumor cells
Description: MTT assay is used to determine cell proliferation, percent of viable cells, and cytotoxicity. MTT (3-[4,5-dimethylthiazol-2-yl]2,5-diphenyltetrazolium bromide) is a yellow dye, which can be absorbed by the living cells and be reduced to purplish blue formazan crystals by succinate tetrazolium reductase in mitochondria. Formazan formation can therefore be used to assess and determine the survival rate of cells.
Tumor cells (A549) were plated at 2500 cells/well of a 96-well plate in complete growth medium (DMEM+10% FBS, antibiotic/antimycotic, fungizone, L-glutamine, sodium pyruvate, and non-essential amino acids). The cells were allowed to grow overnight. After cell proliferation, the cells were washed and re-suspended in fresh culture medium and placed in 96 well plates.
To each of the 96 well plates containing A549 and a control, 5, 1, and 0.2 μM of the exemplary compounds 1-200 were add. The 96 well plates were incubated for 48 hours. Cell viability was measured by adding MTT (Sigma) at 5 mg/ml for 4 h to the cells and then removing the medium and resuspending each well in 50 μl DMSO to solubilize the crystals. The 96-well plates were read on a plate-scanning spectrophotometer (BioTek) at an absorbance of […]. The survival rate of cells was calculated based on the measurement of absorption at the 570 nm wavelength by enzyme immunoassay analyzer.

SMILES | viability at 48 h, 0.2 µM [%] | viability at 48 h, 1 µM [%] | viability at 48 h, 5 µM [%]
FC(F)(F)c1cccc(Nc2nnc(-c3ccc(Oc4ncnc5[nH]ccc45)cc3)[nH]2)c1 [Compound 10] | > 70 | > 70 | 50 to 70
CCc1cccc(Nc2nnc(-c3ccc(Oc4cc(N)nc(SC)n4)cc3)[nH]2)c1 [Compound 122] | > 70 | > 70 | < 50
CC(C)(C)Sc1nc(N)cc(Oc2ccc(-c3nnc(Nc4cccc(C(F)(F)F)c4)[nH]3)cc2)n1 [Compound 80] | > 70 | 50 to 70 | < 50
CSc1nc(N)cc(Oc2cccc(-c3nnc(Nc4cccc(C(F)(F)F)c4)o3)c2)n1 [Compound 36] | > 70 | > 70 | > 70
FC(F)(F)c1cccc(Nc2nnc(-c3ccc(Oc4cc(C(F)(F)F)nc5ccccc45)cc3)[nH]2)c1 [Compound 159] | > 70 | > 70 | 50 to 70
COc1ccc2c(Oc3ccc(-c4nnc(Nc5cccc(C(F)(F)F)c5)[nH]4)cc3)ccnc2c1 [Compound 11] | > 70 | > 70 | 50 to 70
Cc1nccc(Oc2ccc(-c3nnc(Nc4cccc(C(F)(F)F)c4)[nH]3)cc2)n1 [Compound 51] | > 70 | 50 to 70 | < 50
FC(F)(F)c1cccc(Nc2nnc(-c3ccc(OCc4ccncc4)cc3)[nH]2)c1 [Compound 143] | > 70 | > 70 | > 70
N#Cc1ccc2c(Oc3ccc(-c4nnc(Nc5cccc(C(F)(F)F)c5)[nH]4)cc3)ccnc2c1 [Compound 189] | > 70 | > 70 | > 70
FC(F)(F)c1cccc(Nc2nnc(-c3ccc(Oc4ccnc5ccccc45)cc3)[nH]2)c1 [Compound 12] | > 70 | > 70 | 50 to 70
COc1cc(Oc2ccc(-c3nnc(Nc4cccc(C(F)(F)F)c4)[nH]3)cc2)ncn1 [Compound 76] | > 70 | > 70 | 50 to 70
FC(F)(F)c1cccc(Nc2nnc(-c3cccc(Oc4ccnc5ccccc45)c3)[nH]2)c1 [Compound 23] | > 70 | > 70 | > 70
COc1nc(Oc2ccc(-c3nnc(Nc4cccc(C(F)(F)F)c4)[nH]3)cc2)c2cc[nH]c2n1 [Compound 75] | > 70 | > 70 | > 70
COc1cc(Oc2cccc(-c3nnc(Nc4cccc(C(F)(F)F)c4)[nH]3)c2)ccn1 [Compound 90] | > 70 | > 70 | > 70
CSc1nc(N)cc(Oc2ccc(-c3nnc(Nc4ccc(C#N)cc4)[nH]3)cc2)n1 [Compound 127] | > 70 | > 70 | 50 to 70
Nc1nc(OCC2CC2)cc(Oc2ccc(-c3nnc(Nc4cccc(C(F)(F)F)c4)[nH]3)cc2)n1 [Compound 84] | > 70 | > 70 | > 70
CSc1nc(N)cc(Oc2ccc(-c3nnc(Nc4cccc(C(F)(F)F)c4F)[nH]3)cc2)n1 [Compound 137] | > 70 | < 50 | < 50
Nc1cc(Oc2cccc(-c3nnc(Nc4cccc(C(F)(F)F)c4)[nH]3)c2)ncn1 [Compound 16] | > 70 | > 70 | > 70
CSc1nc(N)cc(Oc2ccc(-c3nnc(Nc4ccccc4Cl)[nH]3)cc2)n1 [Compound 140] | > 70 | > 70 | 50 to 70
CSc1nc(N)cc(Oc2ccc(-c3nnc(Nc4ccc5c(c4)-c4ccccc4C5)[nH]3)cc2)n1 [Compound 136] | > 70 | 50 to 70 | < 50
COCCCNc1cc(Oc2ccc(-c3nnc(Nc4cccc(C(F)(F)F)c4)[nH]3)cc2)nc(SC)n1 [Compound 145] | > 70 | > 70 | < 50
Cc1cc(Oc2ccc(-c3nnc(Nc4cccc(C(F)(F)F)c4)[nH]3)cc2)ccn1 [Compound 74] | > 70 | < 50 | < 50
